Test results reported in ChEMBL document CHEMBL1128841, “Purification of pig and rat liver squalene epoxidase by affinity chromatography” (Bioorg Med Chem Lett, 1995).
pIC50: −log10 of the molar value.

Target: Squalene monooxygenase (Rattus norvegicus, UniProt P52020)
Assay: The compound was tested for its inhibitory activity against rat Squalene epoxidase

Sequence of Squalene monooxygenase (P52020 whole entry): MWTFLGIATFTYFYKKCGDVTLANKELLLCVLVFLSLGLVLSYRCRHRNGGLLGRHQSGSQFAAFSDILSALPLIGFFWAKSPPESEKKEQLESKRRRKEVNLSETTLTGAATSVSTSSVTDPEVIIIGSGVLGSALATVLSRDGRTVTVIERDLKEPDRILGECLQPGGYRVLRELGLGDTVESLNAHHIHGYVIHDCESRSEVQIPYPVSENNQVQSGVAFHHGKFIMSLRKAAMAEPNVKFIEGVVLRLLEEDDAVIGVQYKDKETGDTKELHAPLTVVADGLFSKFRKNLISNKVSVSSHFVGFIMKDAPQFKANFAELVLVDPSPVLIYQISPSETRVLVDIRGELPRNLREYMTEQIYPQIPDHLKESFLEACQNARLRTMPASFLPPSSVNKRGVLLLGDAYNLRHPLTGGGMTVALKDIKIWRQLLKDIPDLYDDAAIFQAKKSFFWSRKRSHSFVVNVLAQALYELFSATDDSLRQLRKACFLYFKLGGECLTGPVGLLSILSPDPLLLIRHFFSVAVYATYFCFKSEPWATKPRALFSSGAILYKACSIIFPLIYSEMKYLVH

CNCCC/C(C)=C/CC/C(C)=C/CC/C=C(\C)CC/C=C(\C)CCCNCCCCCCN
pIC50: 6.00
